Measured values reported in the supplement of paper PMC10307832.

Experiments:
Assay in all cases: relative viability (nuclei count vs DMSO), 5 days (fraction); higher = more cells survive
[1] = compound: C1=CC2=C(C=C(C(=C2N=C1)O)N=NC3=CC4=C(C=C3)C=C(C=C4)S(=O)(=O)O)S(=O)(=O)O + CC1(C)CCC(c2ccc(Cl)cc2)=C(CN2CCN(c3ccc(C(=O)NS(=O)(=O)c4ccc(N[C@H](CCN5CCOCC5)CSc5ccccc5)c(S(=O)(=O)C(F)(F)F)c4)cc3)CC2)C1 [Navitoclax] (partner 0.5 µM)
Summary of the method: (§1)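 Nuclei were stained with Hoechst during a one-step fixation (final 0.05% Triton X-100, 1% formaldehyde, 1 ug/ml Hoechst) carried out 5 days after dosing, then counted on 4× images. The cells, lung cancer lines in 1536-well plates, had been dosed by pin tool the day after seeding with one drug alone or a fixed anchor-drug dose plus five library-drug doses (not always all listed) in √10 steps. Relative viability is the nuclei count in treated wells divided by that in vehicle wells, and each value is the median of duplicate plates.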

AT-7519 = compound: O=C(NC1CCNCC1)c1n[nH]cc1NC(=O)c1c(Cl)cccc1Cl [AT-7519]
Summary of the method: (§2)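 Viability was read as treated-well nuclei divided by vehicle-well nuclei, using the median across plates. Lung cancer cell lines in 1536-well plates were kept overnight at 37 °C, pinned with five √10-spaced library-drug doses, and after 5 days were Hoechst-stained, imaged at 4× and counted in MetaXpress. Plates passed only with control CV below 25% and at least one doubling.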

[2] = compound: C1=CC2=C(C=C(C(=C2N=C1)O)N=NC3=CC4=C(C=C3)C=C(C=C4)S(=O)(=O)O)S(=O)(=O)O
Summary of the method: as §2

[3] = compound: C1=CC2=C(C=C(C(=C2N=C1)O)N=NC3=CC4=C(C=C3)C=C(C=C4)S(=O)(=O)O)S(=O)(=O)O + COc1cc2c(Oc3ccc(NC(=O)C4(C(=O)Nc5ccc(F)cc5)CC4)cc3F)ccnc2cc1OCCCN1CCOCC1 [Foretinib] (partner 0.25 µM)
Summary of the method: as §1

Cell Line | relative viability ([1]; first compound 0.08 µM) | relative viability ([1]; first compound 0.253 µM) | relative viability ([1]; first compound 0.8 µM) | relative viability ([1]; first compound 2.53 µM) | relative viability ([1]; first compound 8 µM) | relative viability (AT-7519; 0.01 µM) | relative viability (AT-7519; 0.03162 µM) | relative viability (AT-7519; 0.3162 µM) | relative viability (AT-7519; 1 µM) | relative viability ([2]; 0.08 µM) | relative viability ([2]; 0.253 µM) | relative viability ([2]; 0.8 µM) | relative viability ([2]; 2.53 µM) | relative viability ([2]; 8 µM) | relative viability ([3]; first compound 0.08 µM) | relative viability ([3]; first compound 0.253 µM) | relative viability ([3]; first compound 0.8 µM) | relative viability ([3]; first compound 2.53 µM) | relative viability ([3]; first compound 8 µM)
HCC-44 | 1.03 | 0.863 | 1.01 | 1.02 | 0.969 | 0.992 | 0.99 | 1.05 | 1.05 | 1.02 | 0.959 | 0.952 | 1.05 | 1 |  |  |  |  | 
HCC-827 | 1 | 0.977 | 0.995 | 1.03 | 1 | 1.04 | 1.04 | 1.02 | 0.997 | 1.08 | 0.997 | 1.01 | 1.02 | 1.04 | 1.12 | 0.955 | 0.995 | 1.05 | 1.08
NCI-H1623 |  |  |  |  |  | 0.982 | 0.934 | 1.05 | 0.773 | 0.925 | 0.995 | 0.953 | 1.06 | 0.852 | 0.845 | 0.874 | 0.854 | 0.832 | 0.6
NCI-H2347 | 0.898 | 0.738 | 0.809 | 0.917 | 0.391 | 1.05 | 0.958 | 1.01 | 0.762 | 1.06 | 0.941 | 0.974 | 1.02 | 0.98 | 1.07 | 1.12 | 0.766 | 1.13 | 0.801
PC-14 | 1.02 | 0.973 | 0.982 | 1.05 | 1.01 | 0.971 | 0.94 | 0.928 | 0.714 | 1.02 | 0.95 | 0.944 | 1.07 | 0.94 | 1.16 | 0.905 | 0.815 | 0.971 | 1.11
NCI-H1651 | 1.04 | 0.932 | 1.14 | 1.15 | 0.991 | 0.959 | 0.897 | 1.02 | 0.997 | 1.03 | 0.966 | 0.961 | 0.991 | 0.931 | 0.923 | 0.727 | 0.864 | 0.857 | 0.623
HARA | 1.15 | 1.15 | 1.18 | 1.14 | 1.11 | 0.86 | 0.897 | 1.07 | 0.892 | 1.03 | 0.871 | 0.995 | 0.953 | 0.806 | 1.23 | 0.896 | 0.914 | 0.901 | 0.821
NCI-H1650 | 1.36 | 1.27 | 1.28 | 1.2 | 1.12 | 0.985 | 1.03 | 0.88 | 0.328 | 0.893 | 0.93 | 0.875 | 0.993 | 0.773 | 1.34 | 1.17 | 1.38 | 1.01 | 0.448
NCI-H1563 |  |  |  |  |  | 0.955 | 0.934 | 1.02 | 0.998 | 1.09 | 0.96 | 0.995 | 0.949 | 0.878 | 1.04 | 1.02 | 0.91 | 0.996 | 0.895
ABC-1 |  |  |  |  |  | 1.1 | 0.876 | 0.787 | 0.699 | 0.923 | 0.743 | 0.744 | 1.08 | 0.776 | 1.19 | 1.02 | 0.915 | 1.27 | 0.374
NCI-H522 |  |  |  |  |  | 0.814 | 0.933 | 0.873 | 0.897 | 0.965 | 0.984 | 0.872 | 1.02 | 0.774 |  |  |  |  | 
SW 900 |  |  |  |  |  | 0.771 | 0.866 | 0.786 | 0.657 | 1.07 | 0.971 | 0.802 | 0.918 | 0.841 | 0.806 | 0.9 | 0.912 | 0.786 | 0.741
NCI-H1792 | 0.712 | 0.578 | 0.598 | 0.623 | 0.632 | 0.664 | 0.768 | 0.874 | 0.989 | 0.951 | 0.858 | 0.877 | 0.852 | 0.974 |  |  |  |  | 
LCLC-103H |  |  |  |  |  | 1.08 | 0.983 | 1.01 | 1.07 | 1.02 | 0.998 | 0.976 | 1.02 | 1.03 | 0.87 | 0.852 | 0.684 | 0.749 | 0.747
NCI-H358 |  |  |  |  |  | 0.889 | 0.86 | 0.85 | 0.31 | 1.08 | 0.978 | 0.841 | 0.943 | 1.01 | 0.778 | 0.61 | 0.635 | 0.651 | 0.884
NCI-H1648 |  |  |  |  |  | 0.877 |  | 0.832 | 0.711 | 0.747 | 0.816 | 0.677 | 0.682 | 1.04 |  |  |  |  | 
NCI-H2342 |  |  |  |  |  | 0.909 | 0.96 | 0.906 | 0.92 | 0.991 | 0.989 | 0.841 | 1.04 | 0.876 | 1.22 | 1.1 | 1.15 | 1.11 | 1.05
NCI-H650 |  |  |  |  |  | 1.02 | 0.871 | 1.01 | 1.03 | 0.883 | 0.937 | 0.86 | 0.969 | 0.671 | 1.13 | 1.07 | 1.01 | 1.02 | 1.06
NCI-H661 |  |  |  |  |  | 1.04 | 0.874 | 1.02 | 0.648 | 1.02 | 1 | 0.969 | 1.01 | 0.967 | 1.12 | 0.989 | 0.981 | 1.08 | 1.04
